Reference: EP4800015A1, “AZABICYCLO DERIVATIVE AND PREPARATION METHOD THEREFOR, AND USE” (Zhejiang Hisun Pharmaceutical Co., Ltd., priority 2023, dated 2025)

Assays:
recombinant human WRN = molecular target: T1, recombinant human WRN (Homo sapiens, UniProt Q14191); test: Inhibition of WRN enzyme activity (ATPase), ADP-Glo Kinase Assay; type: biochemical; conditions: WRN protein 5 nM, Flap 0.1 nM, ATP 30 µM; read-out: IC50
T1 construct: purchased BPS 101264
Outline: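 ATPase activity was measured by ADP-Glo luminescence after a 10-min room-temperature reaction with 30 µM ATP and 0.1 nM Flap26 oligonucleotide substrate. The 5 nM WRN had first been exposed to compound (0.004–1000 nM) for 15 min in pH 7.5 Tris buffer with 2 mM MgCl2. IC50 values came from log-concentration regression against the DMSO control.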

SW48 cells = test: Inhibition of SW48 cell proliferation (CellTiter-Glo); type: cell-based; conditions: Homo sapiens; SW48 cells (MSI-H), 120 hours
Procedure: (§1) The following method was used to determine the effect of the compounds of the present disclosure on SW48 cell proliferation. SW48 cells (MSI-H cells) were purchased from American ATCC cell bank and cultured in Leibovitz's L-15 medium (Gibco, catalog No. 11415064) containing 10% fetal bovine serum, 100 U penicillin, and 100 µg/mL streptomycin. Cell viability was determined by CellTiter-Glo® Luminescent Cell Viability Assay kit (Promega, catalog No. G7573).
(§2) The experiment was performed according to the steps of the kit manual, which is briefly described as follows: test compounds were first dissolved in DMSO to prepare 10 mM stock solutions, and then diluted with medium to prepare test samples, with final compound concentrations ranging from 10000 nM to 1.52 nM. Cells in logarithmic growth phase were seeded into 96-well cell culture plates at a density of 500 cells per well and cultured overnight at 37 °C in an air incubator, then test compounds were added and cultivation continued for 120 hours. After the cultivation was completed, 40 µL of CellTiter-Glo detection reagent was added to each well, shaken for 5 minutes, and then left to stand for 10 minutes. Luminescence values of each well were read on a microplate reader using Luminescence mode. The percentage inhibition at each concentration point was calculated by comparison with the control group (0.1% DMSO), and then IC50 values for the compounds for inhibition of cell proliferation were obtained using nonlinear regression analysis of compound concentration logarithm versus inhibition rate in GraphPad Prism 9 software, as shown in Table 2.
The IC50 value results of the compounds of the present disclosure are represented by A, wherein "A" indicates 1 nM < IC50 ≤ 100 nM. Table 2 IC50 data for inhibition of SW48 cell proliferation by the compounds of the present disclosure

RL95-2 cells = test: Inhibition of RL95-2 cell proliferation (CellTiter-Glo); type: cell-based; conditions: Homo sapiens; RL95-2 cells (MSI-H), 120 hours
Procedure: as §1, with “RL95-2” for “SW48”, “Cell Resource Center of Shanghai Institutes for Biological Sciences, Chinese Academy of Sciences,” for “American ATCC cell bank”, “DMEM/F12” for “Leibovitz's L-15”, “A4192001)” for “11415064)”
as §2, with “a 5% CO2” for “an air”, “incubator, and” for “incubator,”, “50” for “40”, “3.” for “2.”
The IC50 value results of the compounds of the present disclosure are represented by A, wherein "A" indicates 1 nM < IC50 ≤ 100 nM. Table 3 IC50 data for inhibition of RL95-2 cell proliferation by the compounds of the present disclosure

T1 sequence (Q14191 whole entry): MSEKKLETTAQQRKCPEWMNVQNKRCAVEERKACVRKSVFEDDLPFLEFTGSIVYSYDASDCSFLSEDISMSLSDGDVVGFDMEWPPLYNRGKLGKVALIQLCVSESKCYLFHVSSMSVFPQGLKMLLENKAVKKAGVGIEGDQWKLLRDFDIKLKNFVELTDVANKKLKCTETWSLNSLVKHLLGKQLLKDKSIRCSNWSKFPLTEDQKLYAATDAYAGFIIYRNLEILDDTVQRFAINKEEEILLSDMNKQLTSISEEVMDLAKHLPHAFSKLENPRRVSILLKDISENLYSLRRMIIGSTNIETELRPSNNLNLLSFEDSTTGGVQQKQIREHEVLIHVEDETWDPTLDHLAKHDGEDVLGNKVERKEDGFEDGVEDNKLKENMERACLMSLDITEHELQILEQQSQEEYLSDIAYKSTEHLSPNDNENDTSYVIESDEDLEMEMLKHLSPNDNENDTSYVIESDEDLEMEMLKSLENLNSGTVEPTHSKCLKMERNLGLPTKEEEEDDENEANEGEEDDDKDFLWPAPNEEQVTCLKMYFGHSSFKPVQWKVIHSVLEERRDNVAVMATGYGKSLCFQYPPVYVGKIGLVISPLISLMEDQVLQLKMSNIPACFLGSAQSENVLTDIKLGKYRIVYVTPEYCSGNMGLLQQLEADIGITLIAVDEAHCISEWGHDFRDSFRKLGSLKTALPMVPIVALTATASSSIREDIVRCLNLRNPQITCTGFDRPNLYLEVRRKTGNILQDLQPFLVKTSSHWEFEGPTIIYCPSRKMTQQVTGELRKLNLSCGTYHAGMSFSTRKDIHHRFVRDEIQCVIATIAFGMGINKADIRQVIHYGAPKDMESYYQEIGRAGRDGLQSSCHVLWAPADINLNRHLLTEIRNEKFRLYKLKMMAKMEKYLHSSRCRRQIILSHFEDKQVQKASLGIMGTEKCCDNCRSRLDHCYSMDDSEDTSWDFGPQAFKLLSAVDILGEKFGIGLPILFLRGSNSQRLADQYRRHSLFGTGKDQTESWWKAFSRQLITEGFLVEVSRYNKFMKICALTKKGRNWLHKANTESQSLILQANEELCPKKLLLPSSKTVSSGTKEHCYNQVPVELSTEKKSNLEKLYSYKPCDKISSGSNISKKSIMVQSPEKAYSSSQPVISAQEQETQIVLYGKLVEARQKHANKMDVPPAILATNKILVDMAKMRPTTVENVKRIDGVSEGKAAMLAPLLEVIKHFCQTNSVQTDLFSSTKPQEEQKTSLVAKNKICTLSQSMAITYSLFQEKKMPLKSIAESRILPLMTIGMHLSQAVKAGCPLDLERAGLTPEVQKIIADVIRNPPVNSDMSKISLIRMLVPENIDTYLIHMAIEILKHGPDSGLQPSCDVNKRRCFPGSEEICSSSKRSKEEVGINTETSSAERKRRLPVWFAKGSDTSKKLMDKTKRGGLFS

Structure (SMILES) | IC50 (recombinant human WRN) | IC50 (SW48 cells) | IC50 (RL95-2 cells)
CCc1c(N2CCN(C(=O)c3ncnc(C)c3O)CC2)c(=O)n2nc(C3=CCCCCC3)nc2n1CC(=O)Nc1ccc(C(F)(F)F)cc1F [Example 49, 2-(2-(cyclohept-1-en-1-yl)-5-ethyl-6-(4-(5-hydroxy-6-methylpyrimidine-4-carbonyl)piperazin-1-yl)-7-oxo-[1,2,4]triazolo[1,5-a]pyrimidin-4(7H)-yl)-N-(2-fluoro-4-(trifluoromethyl)phenyl)acetamide] | 1 to 100 nM | 1 to 100 nM | 1 to 100 nM
CCc1c(N2CCN(C(=O)c3ncnc(C)c3O)CC2)c(=O)n2nc(C=C3CCC3)nc2n1CC(=O)Nc1ccc(S(F)(F)(F)(F)F)cc1 [Example 53, 2-(2-(cyclobutylidenemethyl)-5-ethyl-6-(4-(5-hydroxy-6-methylpyrimidine-4-carbonyl)piperazin-1-yl)-7-oxo-[1,2,4]triazolo[1,5-a]pyrimidin-4(7H)-yl)-N-(4-(pentafluoro-λ^6-sulfaneyl)phenyl)ace tamide] | 1 to 100 nM | 1 to 100 nM | 1 to 100 nM
CCc1c(N2CCN(C(=O)c3ncnc(C)c3O)CC2)c(=O)n2nc(-c3ccc4sccc4c3)nc2n1CC(=O)Nc1ccc(C(F)(F)F)cc1Cl [Example 54, 2-(2-(benzo[b]thiophen-5-yl)-5-ethyl-6-(4-(5-hydroxy-6-methylpyrimidine-4-carbonyl)piperazin-1-yl)-7-oxo-[1,2,4]triazolo[1,5-a]pyrimidin-4(7H)-yl)-N-(2-chloro-4-(trifluoromethyl)phenyl)acet amide] | 1 to 100 nM | 1 to 100 nM | 1 to 100 nM
CCc1c(N2CCN(C(=O)c3ncnc(C)c3O)CC2)c(=O)n2nc(-c3ccc4ccsc4c3)nc2n1CC(=O)Nc1ccc(C(F)(F)F)cc1Cl [Example 55, 2-(2-(benzo[b]thiophen-6-yl)-5-ethyl-6-(4-(5-hydroxy-6-methylpyrimidine-4-carbonyl)piperazin-1-yl)-7-oxo-[1,2,4]triazolo[1,5-a]pyrimidin-4(7H)-yl)-N-(2-chloro-4-(trifluoromethyl)phenyl)acet amide] | 1 to 100 nM | 1 to 100 nM | 1 to 100 nM
CCc1c(N2CCN(C(=O)c3ncnc(C)c3O)CC2)c(=O)n2nc(C3=CCCCOC3)nc2n1CC(=O)Nc1ccc(S(F)(F)(F)(F)F)cc1Cl [Example 84, N-(2-chloro-4-(pentafluoro-λ^6-sulfaneyl)phenyl)-2-(5-ethyl-6-(4-(5-hydroxy-6-methylpyrimidine-4-carbonyl)piperazin-1-yl)-7-oxo-2-(2,5,6,7-tetrahydrooxepin-3-yl)-[1,2,4]triazolo[1,5-a]pyrimidin-4(7H)-yl)acetamide] | 1 to 100 nM | 1 to 100 nM | 1 to 100 nM
CCc1c(N2CCN(C(=O)c3ncnc(C)c3O)CC2)c(=O)n2nc(-c3ccc4occc4c3)nc2n1CC(=O)Nc1ccc(S(F)(F)(F)(F)F)cc1Cl [Example 85, 2-(2-(Benzofuran-5-yl)-5-ethyl-6-(4-(5-hydroxy-6-methylpyrimidine-4-carbonyl)piperazin-1-yl)-7-oxo-[1,2,4]triazolo[1,5-a]pyrimidin-4(7H)-yl)-N-(2-chloro-4-(pentafluoro-λ^6-sulfaneyl)phenyl) acetamide] | 1 to 100 nM | 1 to 100 nM | 1 to 100 nM
CCc1c(N2CCN(C(=O)c3ncnc(C)c3O)CC2)c(=O)n2nc(-c3ccc4c(c3)CCO4)nc2n1CC(=O)Nc1ccc(S(F)(F)(F)(F)F)cc1 [Example 86, 2-(2-(2,3-dihydrobenzofuran-5-yl)-5-ethyl-6-(4-(5-hydroxy-6-methylpyrimidine-4-carbonyl)piperazin-1-yl)-7-oxo-[1,2,4]triazolo[1,5-a]pyrimidin-4(7H)-yl)-N-(4-(pentafluoro-λ^6-sulfaneyl)phenyl)acetamide] | 1 to 100 nM | 1 to 100 nM | 1 to 100 nM
CCc1c(N2CCN(C(=O)c3ncnc(C)c3O)CC2)c(=O)n2nc(-c3ccc4c(c3)CCO4)nc2n1CC(=O)Nc1ccc(S(F)(F)(F)(F)F)cc1C [Example 88, 2-(2-(2,3-dihydrobenzofuran-5-yl)-5-ethyl-6-(4-(5-hydroxy-6-methylpyrimidine-4-carbonyl)piperazin-1-yl)-7-oxo-[1,2,4]triazolo[1,5-a]pyrimidin-4(7H)-yl)-N-(2-methyl-4-(pentafluoro-λ^6-sulfaneyl)phenyl)acetamide] | 1 to 100 nM | 1 to 100 nM | 1 to 100 nM

Continued, in another order:

IC50 (recombinant human WRN) | IC50 (SW48 cells) | Structure (SMILES) | IC50 (RL95-2 cells)
1 to 100 nM | 1 to 100 nM | CCc1c(N2CCN(C(=O)c3ncnc(C)c3O)CC2)c(=O)n2nc(C3=CC4CC(=O)CC4C3)nc2n1CC(=O)Nc1ccc(C(F)(F)F)cc1Cl (stereo not drawn) [Example 17, N-(2-chloro-4-(trifluoromethyl)phenyl)-2-(5-ethyl-6-(4-(5-hydroxy-6-methylpyrimidine-4-carbonyl)piperazin-1-yl)-7-oxo-2-(5-oxo-1,3a,4,5,6,6a-hexahydropentalen-2-yl)-[1,2,4]triazolo[1,5-a]pyrimidin-4(7H)-yl)acetamide] | 1 to 100 nM
1 to 100 nM | 1 to 100 nM | CCc1c(N2CCN(C(=O)c3ncnc(C)c3O)CC2)c(=O)n2nc(C3=CC4CC4C3)nc2n1CC(=O)Nc1ccc(C(F)(F)F)cc1Cl (stereo not drawn) [Example 18, 2-(2-(bicyclo[3.1.0]hex-2-en-3-yl)-5-ethyl-6-(4-(5-hydroxy-6-methylpyrimidine-4-carbonyl)piperazin-1-yl)-7-oxo-[1,2,4]triazolo[1,5-a]pyrimidin-4(7H)-yl)-N-(2-chloro-4-(trifluoromethyl)phenyl)acetamide] | 1 to 100 nM
< 1 nM | 1 to 100 nM | CCc1c(N2CCN(C(=O)c3ncnc(C)c3O)CC2)c(=O)n2nc(-c3cc4ccccc4o3)nc2n1CC(=O)Nc1ccc(C(F)(F)F)cc1Cl [Example 19, 2-(2-(benzofuran-2-yl)-5-ethyl-6-(4-(5-hydroxy-6-methylpyrimidine-4-carbonyl)piperazin-1-yl)-7-oxo-[1,2,4]triazolo[1,5-a]pyrimidin-4(7H)-yl)-N-(2-chloro-4-(trifluoromethyl)phenyl)acetamide] | 1 to 100 nM
1 to 100 nM | 1 to 100 nM | CCc1c(N2CCN(C(=O)c3ncccc3O)CC2)c(=O)n2nc(C3=CC4CC(=O)CC4C3)nc2n1CC(=O)Nc1ccc(C(F)(F)F)cc1Cl (stereo not drawn) [Example 22, N-(2-chloro-4-(trifluoromethyl)phenyl)-2-(5-ethyl-6-(4-(3-hydroxypicolinoyl)piperazin-1-yl)-7-oxo-2-(5-oxo-1,3a,4,5,6,6a-hexahydropentalen-2-yl)-[1,2,4]triazolo[1,5-a]pyrimidin-4(7H)-yl)acet amide] | 1 to 100 nM
1 to 100 nM | 1 to 100 nM | CCc1c(N2CCN(C(=O)c3ncnc(C)c3O)CC2)c(=O)n2nc(C3=CCCCCC3)nc2n1CC(=O)Nc1ccc(C(F)(F)F)cc1C [Example 47, 2-(2-(cyclohept-1-en-1-yl)-5-ethyl-6-(4-(5-hydroxy-6-methylpyrimidine-4-carbonyl)piperazin-1-yl)-7-oxo-[1,2,4]triazolo[1,5-a]pyrimidin-4(7H)-yl)-N-(2-methyl-4-(trifluoromethyl)phenyl) acetamide] | 1 to 100 nM
